Patent publication US20240246902A1, “PRODRUGS OF 6-DIAZO-5-OXO-L-NORLEUCINE” (THE JOHNS HOPKINS UNIVERSITY, priority 2021, published 2024)
Converted amounts (≈) assume the structure as drawn. Where two headings read alike, the source gives them in different places.

Legend:
[1] = Plasma stability, human plasma; assay type: in vitro ADME; details: HP = Human Plasma
[2] = Plasma stability, mouse plasma; details: MP = Mouse Plasma
[3] = Plasma stability, plasma from CES1KO mice; details: CES1KO = Mouse Plasma from CES1KO mice
[4] = Metabolic stability in swine jejunum (gut) tissue homogenate; assay type: in vitro ADME; details: prodrug 20 μM, 37° C.
Description: (§1) The representative Compounds of the Disclosure were screened for metabolic stability in swine jejunum/liver tissue homogenates, following our previously reported methods (Zimmermann et al., J. Med. Chem., 61(9):3918-29 (2018); Tenora et al., J. Med. Chem., 62(7):3524-38 (2019)). In brief, freshly collected tissues were homogenized by probe sonication in 9× volume of 0.1 M potassium phosphate buffer over ice. Post homogenization, prodrugs were spiked at a concentration of 20 μM (in triplicate) and incubated in an orbital shaker at 37° C. for 60 min. Final concentration of DMSO in the incubations was 0.2% v/v. At each time point (0, 30, 60 min), 100 μL of sample was precipitated with 300 μL of methanol containing internal standard (IS; losartan: 0.5 μM). […] After centrifugation, 50 μL of supernatant was diluted with 50 μL of water, vortexed and submitted for analysis. Prodrug disappearance over time was measured using liquid chromatography tandem mass spectrometry (LC-MS/MS).
(§2) The processed supernatants were analyzed on a Thermo Scientific Vanquish UPLC system (equipped with Vanquish autosampler, pumps, and column compartment) hyphenated to TSQ Altis mass spectrometer (Thermo Fisher Scientific Inc., Waltham MA). […] The autosampler was operated at 4° C. […] Peak area ratios obtained from peak area counts of analyte and internal standard were used to measure the disappearance of prodrugs.

[5] = Plasma stability, rat plasma; assay type: in vitro ADME; details: RP = Rat Plasma
[6] = Plasma stability, pig plasma; assay type: in vitro ADME; details: PP = Pig Plasma
[7] = Metabolic stability in swine liver tissue homogenate; assay type: in vitro ADME; details: prodrug 20 μM, 37° C.
Description: as §1, §2

P493B lymphoma cells = assay: Human tumor cell-to-plasma partitioning assay (DON release in P493B cells); details: 10 million cells/mL, prodrug 20 μM, 37° C., 1 h
Description: The human plasma-to-tumor cell partitioning assays were conducted using P493B lymphoma following our previously reported method. […] In brief, cells were cultured in 150 cm^2 T-flasks (Falcon™, USA, Cat. #08-772-48) with RPMI Medium 1640 medium 1× containing L-glutamine (RPMI-1640, Corning®, USA, Cat. #10-040-CV), supplemented with 10% v/v Fetal Bovine Serum (FBS, Gibco™, USA, Cat. #26140079), and 1% v/v antimycotic/antibiotic (Gibco™, USA, Cat. #15240062). Cells were grown at 37° C., in a humidified atmosphere with 5% CO2. Cells were harvested after achieving>80% confluency and centrifuged at 200×g for 5 min at 25° C. The obtained cell pellet was re-suspended in 20 mL of Dulbecco's phosphate-buffered saline (DPBS, Gibco™, USA, Cat. #14-190-144) maintained at 37° C. and cell count was determined using an automated cell counter (Bio-Rad, USA). […] Both plasma and cell pellet fractions were analyzed for intact prodrug and DON levels.
Frozen plasma and cell pellets were thawed on wet ice. […] After centrifugation, 100 μL of the supernatant was diluted with 400 μL of water, and analyzed in LC-MS/MS. […]
The underivatized supernatants/derivatized samples were analyzed on a LC-MS/MS system consisting of Dionex ultra high-performance LC system hyphenated with Q Exactive Focus Orbitrap mass spectrometer (Thermo Fisher Scientific Inc., Waltham, MA). […]

[8] = not told
[9] = mouse, 1 h

Plasma Stability (% remaining at 60 min) [1] | Plasma Stability (% remaining at 60 min) [2] | Efflux (Efflux) | Gut Stability (% remaining at 60 min) [4] | Liver stability (% remaining at 60 min) [7] | SMILES | Efflux [8] | further results
96 ± 3 (HP) % | 0 ± 0 (MP) % | 23 | 11 ± 1% | – | CC(=O)N[C@@H](Cc1c[nH]c2ccccc12)C(=O)N[C@@H](CCC(=O)C=[N+]=[N-])C(=O)OC(C)C [13′, reference compound] | – | solubility (Solubility): 240 µg/mL (≈ 0.544 mM); Plasma Stability (% remaining at 60 min) [3]: 94 ± 1 (ces1KO) %
– | – | – | 76 ± 0% | 23 ± 0% | CC(=O)N[C@@H](CCC(=O)C=[N+]=[N-])C(=O)OC(C)C [Compound 5a, Isopropyl (S)-2-acetamido-6-diazo-5-oxohexanoate] | – | Plasma Stability (% remaining at 60 min) [5]: 0 ± 0 (RP) %; Plasma Stability (% remaining at 60 min) [6]: 105 ± 1 (PP) %; Plasma Stability (% remaining at 60 min) [3]: 89 ± 2 (ces1KO) %
– | – | 2 | 100 ± 1% | 93 ± 1% | CN(C)CC(=O)N[C@@H](CCC(=O)C=[N+]=[N-])C(=O)OC(C)(C)C [Compound 5h, tert-Butyl (S)-6-diazo-2-(2-(dimethylamino)acetamido)-5-oxohexanoate] | – | P493B cells (DON release; nmol/g) (P493B lymphoma cells): Undetectable
101 ± 0 (HP) % | 68 ± 2 (MP) % | 33 | 79 ± 4% | 80 ± 3% | CN(C)CC(=O)N[C@@H](Cc1c[nH]c2ccccc12)C(=O)N[C@@H](CCC(=O)C=[N+]=[N-])C(=O)OC(C)(C)C [Compound 11b, tert-Butyl (S)-6-diazo-2-((S)-2-(2-(dimethylamino)acetamido)-3-(1H-indol-3-yl)propanamido)-5-oxohexanoate] | – | solubility (Solubility): 170 µg/mL (≈ 0.341 mM); Plasma Stability (% remaining at 60 min) [5]: 3 ± 0 (RP) %
– | – | – | – | – | CC(C)(C)OC(=O)[C@H](CCC(=O)C=[N+]=[N-])NC(=O)[C@H](Cc1c[nH]c2ccccc12)NC(=O)C12CCN(CC1)CC2 [Compound 11d, tert-Butyl (S)-2-((S)-3-(1H-indol-3-yl)-2-(quinuclidine-4-carboxamido)propanamido)-6-diazo-5-oxohexanoate] | 2 | solubility (physchem): 4300 µg/mL (≈ 7.81 mM)
– | – | – | – | – | Cn1cc(C[C@H](NC(=O)C23CCN(CC2)CC3)C(=O)N[C@@H](CCC(=O)C=[N+]=[N-])C(=O)OC(C)(C)C)c2ccccc21 [Compound 12b, tert-Butyl (S)-6-diazo-2-((S)-3-(1-methyl-1H-indol-3-yl)-2-(quinuclidine-4-carboxamido)propanamido)-5-oxohexanoate] | 3.48 | solubility (physchem): 8800 µg/mL (≈ 15.6 mM); Plasma Stability (% remaining at 60 min) [9]: 92 ± 1 (MP) %
– | – | – | – | – | Cn1cc(C[C@H](NC(=O)C2CN3CCC2CC3)C(=O)N[C@@H](CCC(=O)C=[N+]=[N-])C(=O)OC(C)(C)C)c2ccccc21 (stereo partly drawn) [Compound 12c, tert-Butyl (2S)-6-diazo-2-((2S)-3-(1-methyl-1H-indol-3-yl)-2-(quinuclidine-3-carboxamido)propanamido)-5-oxohexanoate] | 5.37 | –
– | – | – | – | – | Cn1cc(C[C@H](NC(=O)CCCNC(=O)C23CCN(CC2)CC3)C(=O)N[C@@H](CCC(=O)C=[N+]=[N-])C(=O)OC(C)(C)C)c2ccccc21 [Compound 12g, tert-Butyl (S)-6-diazo-2-((S)-3-(1-methyl-1H-indol-3-yl)-2-(4-(quinuclidine-4-carboxamido)butanamido)propanamido)-5-oxohexanoate] | 1 | –
– | – | – | – | – | CC(C)(C)OC(=O)[C@H](CCC(=O)C=[N+]=[N-])NC(=O)CNC(=O)C12CCN(CC1)CC2 [Compound 14d, tert-Butyl (S)-6-diazo-5-oxo-2-(2-(quinuclidine-4-carboxamido)acetamido)hexanoate] | 1.48 | –
– | – | – | – | – | CC(C)(C)OC(=O)[C@H](CCC(=O)C=[N+]=[N-])NC(=O)[C@H](Cc1ccccc1)NC(=O)C12CCN(CC1)CC2 [Compound 15b, tert-Butyl (S)-6-diazo-5-oxo-2-((S)-3-phenyl-2-(quinuclidine-4-carboxamido)propanamido)hexanoate] | 7.31 | –
42 ± 1 (HP) % | – | – | – | – | COCCOCCOC(=O)[C@H](CCC(=O)C=[N+]=[N-])NC(=O)[C@H](Cc1c[nH]c2ccccc12)NC(=O)CN(C)C [Compound 30b, 2-(2-Methoxyethoxy)ethyl (S)-6-diazo-2-((S)-2-(2-(dimethylamino)acetamido)-3-(1H-indol-3-yl)propanamido)-5-oxohexanoate] | – | –
100 ± 2 (HP) % | 6 ± 1 (MP % | 1 | 79 ± 7% | 58 ± 2% | CC(=O)N[C@@H](Cc1c[nH]c2ccccc12)C(=O)N[C@@H](CCC(=O)C=[N+]=[N-])C(N)=O [Compound 31a, (S)-2-((S)-2-Acetamido-3-(1H-indol-3-yl)propanamido)-6-diazo-5-oxohexanamide] | – | –

SMILES | Plasma Stability (% remaining at 60 min) [1] | Plasma Stability (% remaining at 60 min) [2] | Efflux (Efflux) | Gut Stability (% remaining at 60 min) [4] | Liver stability (% remaining at 60 min) [7] | Efflux [8] | further results
CN(C)CC(=O)NCC(=O)N[C@@H](CCC(=O)C=[N+]=[N-])C(=O)OC(C)(C)C [Compound 14b, tert-Butyl (S)-6-diazo-2-(2-(2-(dimethylamino)acetamido)acetamido)-5-oxohexanoate] | 100 ± 5 (HP) % | 73 ± 2 (MP) % | 33 | 99 ± 2% | 90 ± 0% | – | solubility (Solubility): ~10000 µg/mL (≈ 27.1 mM)
CN(C)CC(=O)N[C@@H](Cc1cccnc1)C(=O)N[C@@H](CCC(=O)C=[N+]=[N-])C(=O)OC(C)(C)C [Compound 17b, tert-Butyl (S)-6-diazo-2-((S)-2-(2-(dimethylamino)acetamido)-3-(pyridin-3-yl)propanamido)-5-oxohexanoate] | 96 ± 3 (HP) % | 82 ± 6 (MP) % | 57 | 98 ± 1% | 91 ± 1% | – | solubility (Solubility): ~10000 µg/mL (≈ 21.7 mM); Plasma Stability (% remaining at 60 min) [5]: 33 ± 2 (RP) %
CN(C)CC(=O)N[C@H](C(=O)N[C@@H](CCC(=O)C=[N+]=[N-])C(=O)OC(C)(C)C)c1ccccc1 [Compound 19a, tert-Butyl (S)-6-diazo-2-((S)-2-(2-(dimethylamino)acetamido)-2-phenylacetamido)-5-oxohexanoate] | – | – | – | – | 82 ± 0% | 24.37 | –
